# Data published in PubChem BioAssay (NCI).
#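 Five concentrations, 48 hours, 96-well plates. GI50 = concentration required for 50% inhibition of growth. TGI: total growth inhibition.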
# Tests used:
# Assay in all cases: DTP human tumour cell line panel, 48 h
# HCC-2998 colon = tested on: HCC-2998 colon
# OVCAR-3 ovarian = tested on: OVCAR-3 ovarian
# OVCAR-4 ovarian = tested on: OVCAR-4 ovarian
# RPMI-8226 leukemia = tested on: RPMI-8226 leukemia
# ACHN renal = tested on: ACHN renal
# OVCAR-5 ovarian = tested on: OVCAR-5 ovarian
# SNB-75 CNS = tested on: SNB-75 CNS
# SNB-19 CNS = tested on: SNB-19 CNS
# SF-539 CNS = tested on: SF-539 CNS
# MCF7 breast = tested on: MCF7 breast
# MALME-3M melanoma = tested on: MALME-3M melanoma
# SK-OV-3 ovarian = tested on: SK-OV-3 ovarian
# NCI-H226 lung = tested on: NCI-H226 lung
# UACC-257 melanoma = tested on: UACC-257 melanoma
# HCT-15 colon = tested on: HCT-15 colon
# SK-MEL-5 melanoma = tested on: SK-MEL-5 melanoma
# 786-0 renal = tested on: 786-0 renal
# EKVX NSCLC = tested on: EKVX NSCLC
# SF-268 CNS = tested on: SF-268 CNS
# NCI-H23 lung = tested on: NCI-H23 lung
# TK-10 renal = tested on: TK-10 renal
# NCI/ADR-RES ovarian = tested on: NCI/ADR-RES ovarian
# T-47D breast = tested on: T-47D breast
# HL-60(TB) leukemia = tested on: HL-60(TB) leukemia
# SF-295 CNS = tested on: SF-295 CNS
# HT29 colon = tested on: HT29 colon
# SW-620 colon = tested on: SW-620 colon
# UO-31 renal = tested on: UO-31 renal
# SR leukemia = tested on: SR leukemia
# HS 578T breast = tested on: HS 578T breast
# HOP-92 NSCLC = tested on: HOP-92 NSCLC
# SK-MEL-2 melanoma = tested on: SK-MEL-2 melanoma
# SK-MEL-28 melanoma = tested on: SK-MEL-28 melanoma
# CCRF-CEM leukemia = tested on: CCRF-CEM leukemia
# CAKI-1 renal = tested on: CAKI-1 renal
# NCI-H460 lung = tested on: NCI-H460 lung
# U251 CNS = tested on: U251 CNS
# MDA-MB-435 = tested on: MDA-MB-435
# K-562 leukemia = tested on: K-562 leukemia
# M14 melanoma = tested on: M14 melanoma
# COLO 205 colon = tested on: COLO 205 colon
# SN12C renal = tested on: SN12C renal
# LOX IMVI melanoma = tested on: LOX IMVI melanoma
# DU-145 prostate = tested on: DU-145 prostate
# MDA-MB-231 breast = tested on: MDA-MB-231 breast
# HOP-62 NSCLC = tested on: HOP-62 NSCLC
# RXF 393 renal = tested on: RXF 393 renal
# UACC-62 melanoma = tested on: UACC-62 melanoma
# MOLT-4 leukemia = tested on: MOLT-4 leukemia
# HCT-116 colon = tested on: HCT-116 colon
# A498 renal = tested on: A498 renal
# BT-549 breast = tested on: BT-549 breast
# OVCAR-8 ovarian = tested on: OVCAR-8 ovarian
# KM12 colon = tested on: KM12 colon
# NCI-H522 lung = tested on: NCI-H522 lung
# IGROV1 ovarian = tested on: IGROV1 ovarian
# A549 NSCLC = tested on: A549 NSCLC
# PC-3 prostate = tested on: PC-3 prostate
smiles,measurement,setting,value
CN(C)c1ccc(-c2c(NC(C)(C)C)nc3c(OCCc4ccccc4)cccn23)cc1,GI50,HCC-2998 colon,3.55 µM
same,TGI,HCC-2998 colon,> 100 µM
same,GI50,OVCAR-3 ovarian,3.04 µM
same,TGI,OVCAR-3 ovarian,12.9 µM
same,GI50,OVCAR-4 ovarian,3.06 µM
same,TGI,OVCAR-4 ovarian,12.8 µM
same,GI50,RPMI-8226 leukemia,2.53 µM
same,TGI,RPMI-8226 leukemia,6.74 µM
same,GI50,ACHN renal,3.24 µM
same,TGI,ACHN renal,> 100 µM
same,GI50,OVCAR-5 ovarian,3.22 µM
same,TGI,OVCAR-5 ovarian,> 100 µM
same,GI50,SNB-75 CNS,1.79 µM
same,TGI,SNB-75 CNS,8.55 µM
same,GI50,SNB-19 CNS,3.43 µM
same,TGI,SNB-19 CNS,15.6 µM
same,GI50,SF-539 CNS,4.16 µM
same,TGI,SF-539 CNS,19.2 µM
same,GI50,MCF7 breast,2.87 µM
same,TGI,MCF7 breast,9.82 µM
same,GI50,MALME-3M melanoma,2.3 µM
same,TGI,MALME-3M melanoma,5.95 µM
same,GI50,SK-OV-3 ovarian,3.08 µM
same,TGI,SK-OV-3 ovarian,35.8 µM
same,GI50,NCI-H226 lung,2.72 µM
same,TGI,NCI-H226 lung,8.86 µM
same,GI50,UACC-257 melanoma,2.78 µM
same,TGI,UACC-257 melanoma,8.19 µM
same,GI50,HCT-15 colon,3.3 µM
same,TGI,HCT-15 colon,24 µM
same,GI50,SK-MEL-5 melanoma,1.83 µM
same,TGI,SK-MEL-5 melanoma,3.37 µM
same,GI50,786-0 renal,3.57 µM
same,TGI,786-0 renal,15.5 µM
same,GI50,EKVX NSCLC,2.89 µM
same,TGI,EKVX NSCLC,9.64 µM
same,GI50,SF-268 CNS,3.53 µM
same,TGI,SF-268 CNS,> 100 µM
same,GI50,NCI-H23 lung,2.91 µM
same,TGI,NCI-H23 lung,10.9 µM
same,GI50,TK-10 renal,2.34 µM
same,TGI,TK-10 renal,6.8 µM
same,GI50,NCI/ADR-RES ovarian,3.09 µM
same,TGI,NCI/ADR-RES ovarian,> 100 µM
same,GI50,T-47D breast,3.43 µM
same,TGI,T-47D breast,> 100 µM
same,GI50,HL-60(TB) leukemia,3.13 µM
same,TGI,HL-60(TB) leukemia,8.38 µM
same,GI50,SF-295 CNS,2.84 µM
same,TGI,SF-295 CNS,8.7 µM
same,GI50,HT29 colon,2 µM
same,TGI,HT29 colon,5.67 µM
same,GI50,SW-620 colon,2.94 µM
same,TGI,SW-620 colon,22.1 µM
same,GI50,UO-31 renal,2.01 µM
same,TGI,UO-31 renal,7.22 µM
same,GI50,SR leukemia,3.04 µM
same,TGI,SR leukemia,18.7 µM
same,GI50,HS 578T breast,2.62 µM
same,TGI,HS 578T breast,9.02 µM
same,GI50,HOP-92 NSCLC,2.09 µM
same,TGI,HOP-92 NSCLC,6.15 µM
same,GI50,SK-MEL-2 melanoma,2.31 µM
same,TGI,SK-MEL-2 melanoma,4.99 µM
same,GI50,SK-MEL-28 melanoma,3.85 µM
same,TGI,SK-MEL-28 melanoma,> 100 µM
same,GI50,CCRF-CEM leukemia,3.29 µM
same,TGI,CCRF-CEM leukemia,> 100 µM
same,GI50,CAKI-1 renal,2.95 µM
same,TGI,CAKI-1 renal,10.5 µM
same,GI50,NCI-H460 lung,2.99 µM
same,TGI,NCI-H460 lung,9.66 µM
same,GI50,U251 CNS,3.24 µM
same,TGI,U251 CNS,11.4 µM
same,GI50,MDA-MB-435,3.16 µM
same,TGI,MDA-MB-435,18.1 µM
same,GI50,K-562 leukemia,3.33 µM
same,TGI,K-562 leukemia,39.3 µM
same,GI50,M14 melanoma,3.48 µM
same,TGI,M14 melanoma,75.6 µM
same,GI50,COLO 205 colon,2.2 µM
same,TGI,COLO 205 colon,5.24 µM
same,GI50,SN12C renal,2.93 µM
same,TGI,SN12C renal,> 100 µM
same,GI50,LOX IMVI melanoma,3 µM
same,TGI,LOX IMVI melanoma,20.7 µM
same,GI50,DU-145 prostate,4.16 µM
same,TGI,DU-145 prostate,> 100 µM
same,GI50,MDA-MB-231 breast,2.71 µM
same,TGI,MDA-MB-231 breast,7.87 µM
same,GI50,HOP-62 NSCLC,3.4 µM
same,TGI,HOP-62 NSCLC,16.9 µM
same,GI50,RXF 393 renal,1.94 µM
same,TGI,RXF 393 renal,5.66 µM
same,GI50,UACC-62 melanoma,3.53 µM
same,TGI,UACC-62 melanoma,52.1 µM
same,GI50,MOLT-4 leukemia,3.46 µM
same,TGI,MOLT-4 leukemia,14 µM
same,GI50,HCT-116 colon,3.23 µM
same,TGI,HCT-116 colon,20.8 µM
same,GI50,A498 renal,2.52 µM
same,TGI,A498 renal,7.83 µM
same,GI50,BT-549 breast,2.98 µM
same,TGI,BT-549 breast,8.45 µM
same,GI50,OVCAR-8 ovarian,3.04 µM
same,TGI,OVCAR-8 ovarian,> 100 µM
same,GI50,KM12 colon,3.3 µM
same,TGI,KM12 colon,16.1 µM
same,GI50,NCI-H522 lung,2.59 µM
same,TGI,NCI-H522 lung,6.65 µM
same,GI50,IGROV1 ovarian,4.3 µM
same,TGI,IGROV1 ovarian,> 100 µM
same,GI50,A549 NSCLC,3.58 µM
same,TGI,A549 NSCLC,> 100 µM
same,GI50,PC-3 prostate,3.09 µM
same,TGI,PC-3 prostate,> 100 µM
